The nature of assay [1]: Cytoprotective activity against H2O2-induced cytotoxicity in human EAhy926 cells at 12.5 uM pre-incubated for 24 hrs before H2O2 challenge for 12 hrs by MTT assay. Type of assay: functional, EA.hy 926. Background: Formazan colour is commonly taken as a measure of viable cells.
Assay [2] in a line: Anti-platelet activity in rabbit platelet-rich plasma assessed as inhibition of ADP-induced platelet aggregation at 50 uM incubated for 5 mins at 37 degC by aggregometry. As to conditions: Oryctolagus cuniculus. Type of assay: functional.
A short description of assay [3]: Anti-platelet activity in rabbit platelet-rich plasma assessed as inhibition of ADP-induced platelet aggregation incubated for 5 mins at 37 degC by aggregometry. Type of assay: functional. As to conditions: Oryctolagus cuniculus.
A short description of assay [4]: Anti-platelet activity in rabbit platelet-rich plasma assessed as inhibition of ADP-induced platelet aggregation at 12.5 uM incubated for 5 mins at 37 degC by aggregometry. It counts as functional. As to conditions: Oryctolagus cuniculus.
The nature of assay [5]: Cytoprotective activity against H2O2-induced cytotoxicity in human EAhy926 cells pre-incubated for 24 hrs before H2O2 challenge for 12 hrs by MTT assay. Type of assay: functional, cell-based. As to conditions: EA.hy 926.
A short description of assay [6]: Cytoprotective activity against H2O2-induced cytotoxicity in human EAhy926 cells at 25 uM pre-incubated for 24 hrs before H2O2 challenge for 12 hrs by MTT assay. It counts as functional, EA.hy 926.
Assay [7] is described as follows: Anti-platelet activity in rabbit platelet-rich plasma assessed as inhibition of ADP-induced platelet aggregation at 25 uM incubated for 5 mins at 37 degC by aggregometry. Type of assay: functional. As to conditions: Oryctolagus cuniculus.
The nature of assay [8]: Cytoprotective activity against H2O2-induced cytotoxicity in human EAhy926 cells at 50 uM pre-incubated for 24 hrs before H2O2 challenge for 12 hrs by MTT assay. It counts as functional, EA.hy 926.
The nature of assay [9]: Cytoprotective activity against H2O2-induced cytotoxicity in human EAhy926 cells at 100 uM pre-incubated for 24 hrs before H2O2 challenge for 12 hrs by MTT assay. It counts as functional, EA.hy 926.
A short description of assay [10]: Anti-platelet activity in rabbit platelet-rich plasma assessed as inhibition of ADP-induced platelet aggregation at 100 uM incubated for 5 mins at 37 degC by aggregometry. As to conditions: Oryctolagus cuniculus. It counts as functional.
Assay [11] is described as follows: Potency index, ratio of EC50 for lipoic acid to EC50 for test compound for cytoprotective activity against H2O2-induced cytotoxicity in human EAhy926 cells pre-incubated for 24 hrs before H2O2 challenge for 12 hrs by MTT assay. It counts as functional.

As usually defined, the inhibition is the percentage by which the read-out fell short of the control. Broadly, the IC50 is the midpoint of a concentration-inhibition curve. By EC50 is commonly meant the concentration giving half of the maximal effect. With `CCOC(=O)/C=C/c1cccc(OC(=O)c2nc(C)c(C)nc2C)c1`, the Activity in [1] was found to be 27.9%; in [6], 34.2%; in assay [8], 39.5%; in assay [9], 47%. In [2], the inhibition at 50 µM is 59.6%. Besides, the IC50 in [3] is 35.8 µM. For the same compound, the inhibition at 12.5 µM in [4] turned out to be 25.1%. Moreover, in assay [5], a half-maximal effect (EC50) was put at 92.6 µM. The inhibition at 25 µM in [7] was found to be 62.2%. Besides, the inhibition at 100 µM in assay [10] was 69.4%.

Take `CCOC(=O)/C=C/c1ccc(OC(=O)c2nc(C)c(C)nc2C)c(O)c1`: the Activity in [1] came to 75.7%; in assay [6], 207%; in assay [8] it was 210.8%; in [9], 375.3%. In addition, the inhibition at 50 µM in assay [2] is 37.9%. Besides, the half-inhibitory concentration (IC50) in assay [3] was 77.4 µM. In [4], the inhibition at 12.5 µM was found to be 22%. The compound further returned an EC50 in assay [5] of 1.7 µM. For the same compound, the inhibition at 25 µM in assay [7] turned out to be 36.4%. For the same compound, the “Ratio EC50” value in assay [11] came out at 40. Also, the inhibition at 100 µM in assay [10] was found to be 58.4%.

On to `COc1cc(/C=C/C(=O)O)ccc1OC(=O)c1nc(C)c(C)nc1C`, for which the Activity in assay [1] amounted to 38.7%; in [6], 40.3%; in assay [8], 49.1%; in assay [9], 55.4%. Further, in assay [2], the inhibition at 50 µM worked out at 46.2%. Also, the IC50 in assay [3] was found to be 44.6 µM. In addition, the inhibition at 12.5 µM in assay [4] was 60.6%. The compound further displayed an EC50 in [5] of 69.4 µM. For the same compound, the inhibition at 25 µM in [7] turned out to be 22.8%. The inhibition at 100 µM in [10] turned out to be 73.2%.

As for `CCOC(=O)/C=C/c1ccc(OC)cc1OC(=O)c1nc(C)c(C)nc1C`, the Activity in assay [1] was -57.6%; in assay [6] it was 16.9%; in assay [8] it was 20.7%; in [9] it was 39.9%. For the same compound, the inhibition at 50 µM in assay [2] was 18.7%. Besides, in assay [3], the half-maximal inhibitory concentration (IC50) worked out at 28.2 µM. Also, the inhibition at 12.5 µM in [4] was 84.2%. The EC50 in assay [5] was 138 µM. Besides, the inhibition at 25 µM in assay [7] was found to be 32.6%. In addition, the inhibition at 100 µM in [10] was found to be 47%.

As for `COc1cc(/C=C/C(=O)O)cc(OC)c1OC(=O)c1nc(C)c(C)nc1C`, the Activity in assay [1] turned out to be 5.7%; in assay [6], 24%; in [8] it was 96.6%; in assay [9], 163%. The inhibition at 50 µM in assay [2] was determined as 51.2%. The IC50 in [3] was 82.3 µM. Moreover, the inhibition at 12.5 µM in assay [4] was determined as 12%. Further, a half-maximal response in assay [5] (EC50) required 34.7 µM. Besides, the inhibition at 25 µM in assay [7] amounted to 17.4%. For the same compound, in assay [10], the inhibition at 100 µM came out at 52.1%.

With `COc1ccc(/C=C/C(=O)O)cc1OC(=O)c1nc(C)c(C)nc1C`, the Activity amounted to 41.3% in [1], 128.1% in assay [6], 159.6% in assay [8] and 216.3% in assay [9]. Besides, the inhibition at 50 µM in assay [2] amounted to 59.8%. Also, in [3], the IC50 was 41.8 µM. Besides, the inhibition at 12.5 µM in [4] was found to be 21.6%. The same compound had an EC50 in assay [5] of 8.8 µM. Further, the inhibition at 25 µM in assay [7] came out at 53.5%. Also, the inhibition at 100 µM in assay [10] stood at 75.2%.

`Cc1nc(C)c(C(=O)Oc2ccc(/C=C/C(=O)O)cc2O)nc1C`: the Activity came to 92.8% in [1], 271.1% in assay [6], 284.8% in assay [8] and 601.4% in assay [9]. Besides, the inhibition at 50 µM in assay [2] was found to be 44.5%. Also, the IC50 in assay [3] was determined as 84.6 µM. Also, the inhibition at 12.5 µM in assay [4] was 32.1%. This compound registered an EC50 in [5] of 2.2 µM. Besides, the inhibition at 25 µM in assay [7] was determined as 25%. Further, the inhibition at 100 µM in [10] turned out to be 53.6%.

Regarding `CCOC(=O)/C=C/c1ccc(OC)c(OC(=O)c2nc(C)c(C)nc2C)c1`, the Activity is 26.4% in [1], 60.1% in assay [6], 89% in assay [8] and 117% in assay [9]. Also, the inhibition at 50 µM in assay [2] turned out to be 32.2%. The 50% inhibitory concentration (IC50) in [3] came out at 143 µM. Further, the inhibition at 12.5 µM in [4] came to 22.3%. The compound also returned an EC50 in assay [5] of 29.9 µM. Also, the inhibition at 25 µM in [7] was determined as 20.6%. Besides, the inhibition at 100 µM in assay [10] came to 39.7%.

As for `Cc1nc(C)c(C(=O)Oc2ccccc2/C=C/C(=O)O)nc1C`, the Activity in assay [1] is listed as 45.7%; in assay [6], 61.8%; in assay [8], 64.9%; in assay [9], 80.1%. Moreover, the inhibition at 50 µM in assay [2] came out at 53.8%. In addition, the IC50 in [3] came out at 9.6 µM. Moreover, the inhibition at 12.5 µM in [4] came to 32.9%. This compound also displayed a concentration giving a half-maximal response (EC50) in [5] of 36.7 µM. In assay [7], the inhibition at 25 µM was 54.8%. Moreover, the inhibition at 100 µM in assay [10] amounted to 17.2%.

The values above are taken from ChEMBL document CHEMBL3580595, “Design, synthesis and biological evaluation of novel trimethylpyrazine-2-carbonyloxy-cinnamic acids as potent cardiovascular agents” (Medchemcomm, 2014).
